Measurements as given in patent US8183005B1, “Pharmaceutical agents for treating HCV infections” (priority 2004, dated 2012).
Like-named read-outs stand apart in the source and are kept apart here.

Columns and labels:
[1] = system: NS3, NS5A, and NS5B; assay: Western blotting of NS3, NS5A and NS5B in replicon cells; type: cell-based, HCV; conditions: 100 nM, 48 hours and 96 hours
Description: Replicon cells were treated with 100 nM of the compound represented by formula (II) for the lengths of time indicated in FIG. 11 (48 hours and 96 hours). Western blot analysis was performed using a method similar to that of Example 5.

[2] = system: de novo syntheses of ceramide and sphingomyelin; assay: De novo syntheses of ceramide and sphingomyelin, [14C]serine labeling; type: cell-based; conditions: HCV replicon cells, 48 hours treatment, [14C]serine three hours
Description: HCV replicon cells were treated for 48 hours with the compound represented by formula (II) at the concentrations indicated in FIG. 13. The cells were then labeled for three hours with [14C]serine. After extraction with chloroform/methanol (1:2, v/v), de novo synthesized ceramide (FIG. 13A) and sphingomyelin (FIG. 13B) were separated by thin layer chromatography.

[3] = system: raft proteins (NS5B, NS5A, caveolin-2); assay: Effect on raft proteins, sucrose density gradient fractionation, Western blot or ELISA; type: cell-based; conditions: 72 hours
Description: 1 mM of the compound represented by formula (II) was added to the HCV replicon cells, then 72 hours later the cell extract was treated for one hour with a solubilizer, 1% Nonidet P-40 (Nacalai tesque, Cat. No. 252-23). Fractions 1 to 9 were separated by the sucrose density gradient fractionation method, and Western blot analysis was performed using a method similar to that of Example 5. […] Caveolin-2 expression was confirmed using a caveolin-2 antibody (BD Transduction, Cat. No 610684).
1 μM of the compound represented by formula (II) was added to the HCV replicon cells, then 72 hours later the cell extract was treated for one hour with 1% NP-40. Raft proteins (solubilizer-resistant) and non-raft proteins were separated using the sucrose density gradient fractionation method, diluted with PBS, concentrated, and then quantified by ELISA analysis.

[4] = system: HCV replication; assay: Recovery from replication inhibition by C2-ceramide, Western blot; type: cell-based; conditions: C2-ceramide added at the same time, 96 hours
Description: To elucidate whether the inhibitory activity of the compound represented by formula (II) against the HCV replicon is dependent on the sphingolipid biosynthetic pathway, cell-permeable ceramide, C2-ceramide (Sigma, Cat. No. A7191), was added to HCV replicon cells at the same time as the compound represented by formula (II), and these were cultured for 96 hours. These cell extracts were used to perform Western blot analysis using a method similar to that of Example 5.

[5] = system: HCV-NS3 protein; assay: Immunostaining of HCV-NS3 protein in HCV replicon cells; type: cell-based; conditions: 100 nM, 96 hours
Description: HCV replicon cells were treated with 100 nM of the compound represented by formula (II) for 96 hours, and then the cells were fixed in 3.7% formaldehyde. Blocking with 3% BSA was followed by incubation with an NS3 antibody (provided by F. Hoffman-La Roche), and then the washed cells were incubated with a Texas-Red-labeled rabbit IgG (Molecular probe), and analyzed using a fluorescence microscope (FIG. 10).

[6] = in vitro; type: cell-based; conditions: human
Description: Firefly luciferase HCV replicon cells (Huh-3-1) suspended in Dulbecco's MEM (Gibco Cat. No. 10569) containing 5% fetal bovine serum (Hyclone Cat. No. SH30071.03) were plated onto a 96-well plate at 5000 cells/well, and cultured overnight under 5% CO2 at 37° C. Approximately 20 hours later, fumonisin B1 was added to a final concentration of 1.37 μM to 1000 μM by carrying out a sequential three-fold dilution, and the cells were then cultured for three more days. The assay was carried out by preparing two types of assay plates: one an opaque white plate and the other a transparent plate. After culturing, the white plate was subjected to the Steady-Glo Luciferase Assay System (Promega Cat. No. E2520). More specifically, 100 μL of reagent was added to each well, mixed three to four times using a pipette, and then stood for five minutes before luminescence was measured using 1450 MicroBeta TRILUX (WALLAC). IC50 (50% inhibitory concentration) of a pharmaceutical agent was calculated by subtracting the value obtained without adding the cells as the background value from all of the values, and then defining the level of inhibition without addition of the pharmaceutical agent as 0%. A Cell Counting Kit-8 (DOJINDO Laboratories, Cat. No. 341-07761) was used for the cytotoxicity assays. 10 μL of reagent was added to each well, mixed three to four times using a pipette, and then stood for approximately 30 minutes; measurements were performed when OD450 nm reached approximately 1.0. IC50 (50% inhibitory concentration) of a pharmaceutical agent was calculated by subtracting the value obtained without adding the cells as the background value from all of the values, and then defining the level of inhibition without addition of the pharmaceutical agent as 0%.
Based on the results of Example 5, the following method was used to measure the effect on cytotoxicity and HCV replicon activity under conditions in which Huh-3-1 cells show reduced LCB1 expression. More specifically, cells were plated onto a 96-well plate at 3500 cells per well, and cultured overnight under 5% CO2 at 37° C. 1.75 μL of 2 μM siRNA was added to 23.3 μL of ECR buffer (buffer included in the RNAiFect Kit), this was stirred vigorously, and then 0.31 μL of RNAiFect transfection reagent was added. This was stirred gently at room temperature and then allowed to stand for ten minutes. siRNA was added to a final concentration of 35 nM, and this was cultured for four days. The effect on cytotoxicity was determined by adding 10 μL of Cell Counting Kit-8 (DOJINDO Laboratories Cat. No. 341-07761) to the medium, mixing three to four times using a pipette, and then allowing this to stand for one hour at 37° C. Absorbance was then measured at 450 nm using a microplate reader Emax (Molecular Devices). After incubation, the medium was exchanged for fresh medium, and the plate was subjected to the Steady-Glo Luciferase Assay System (Promega Cat. No. E2520). 100 μL of reagent was added to each well, mixed three to four times using a pipette, and then allowed to stand for five minutes. Luminescence was then measured using 1450 MicroBeta TRILUX (WALLAC) to determine the HCV replicon activity. IC50 (50% inhibitory concentration) of a pharmaceutical agent was calculated by subtracting the value obtained without adding the cells as the background value from all of the values, and then defining the level of inhibition without addition of the pharmaceutical agent as 0%.
A Cell Counting Kit-8 (DOJINDO Laboratories, Cat. No. 341-07761) was used for the cytotoxicity assays. More specifically, 10 μL of Cell Counting Kit-8 was added to the transparent plate, and this was warmed at 37° C. for 30 to 60 minutes. Using a 96-well plate reader, absorbance was measured at a wavelength of 450 nm with a reference wavelength of 630 nm. […]

CCCCCCCC(=O)CCCCCC/C=C/[C@H](C(=O)N[C@@H](Cc1ccc(OCC=C(C)C)cc1)C(=O)O)[C@@](O)(CC(=O)O)C(=O)O [Compound (40)]
expression levels of NS3, NS5A and NS5B [1]: reduced | intracellular de novo synthesis of ceramide [2]: inhibited | intracellular de novo synthesis of sphingomyelin [2]: inhibited | dissociation of NS5B from the raft ([3]; 1 μM, 1% NP-40, ELISA): significant dissociation of NS5B from the raft | effect on NS5A and caveolin-2 ([3]; 1 mM, 1% Nonidet P-40, Western blot): could not be confirmed | inhibition of HCV replication in presence of C2-ceramide [4]: suppressed in a manner dependent on C2-ceramide concentration | HCV-NS3 protein around the nucleus (immunostaining) [5]: disappeared | CC50 ([6]; HCV replicon cells, FIG. 9, read-out: cytotoxicity CC50): > 50 nM | CC50 ([6]; Huh-3-1 replicon cells, three days, Cell Counting Kit-8, read-out: Cytotoxicity CC50): > 5000 nM
